Experimental data reported in US20250032484A1, “THERAPEUTIC TARGETS AND AGENTS FOR THE TREATMENT OF POSTTRAUMATIC STRESS DISORDER” (priority 2021, published 2025).

Test system: VA patients with PTSD (PTSD symptoms, PTSD Checklist)
Experiment: TreeScan nested case-control study of medications associated with PTSD symptom improvement (PTSD Checklist) in VA records
Assay type: in vivo, human
Settings: for association with PTSD symptom improvement, in words (statistical alert at P<0.1): overall sample
Method: Study Sample and Data Sources. A nested case-control study was conducted within a previously established retrospective cohort that included all VA users with a clinical diagnosis of PTSD (International Classification of Diseases [ICD]-9:309.81, ICD-10: F43.1x) from Oct. 1, 1999 through Sep. 30, 2019 (Shiner et al. (2021) J Eval Clin Pract.). The data source contains information on services use, clinical diagnoses, filled prescriptions, and patient-reported outcome measures (PROMs) for PTSD using the PTSD Checklist (PCL) for these patients. This study was approved by the Veterans Institutional Review Board of Northern New England.
The goal of the current study was to evaluate any filled medications associated with PTSD symptom improvement, and as such, the analytic sample for this study included only patients with PROMs that were at least 30 days apart. 30 days was selected to allow for medications to be taken for at least one full course (typically 28 days). Patients with PROMs more than 365 days apart were excluded as these are unlikely to provide an accurate assessment of PTSD symptom change between the two time points. For patients who had two overlapping PROM intervals, those closest to 84 days in length were chosen to emulate typical PTSD medication efficacy trials (Watts et al. (2013) J Clin Psychiatry. 74: e541-550). When a patient had two or more overlapping intervals at exactly 84 days, the historically earliest interval was chosen. If patients had multiple non-overlapping intervals, all were included. Patients who met the selection criteria for PTSD in the original cohort and had at least one PROM pair where they started a new medication (defined below) constituted the overall analytic sample for the current study.
PTSD Improvement Cases and No Improvement Controls. In order to maximize the number of patients with available symptomatic measurement, two different versions of a PROM for PTSD were integrated into a single dataset (Shiner et al. (2021) J Eval Clin Pract.). The two PROMs were the PCL versions aligned to the Diagnostic and Statistical Manual of Mental Disorders (DSM), version IV and Version 5 (APA (2000): Diagnostic and Statistical Manual of Mental Disorders. 4th Edition. Text Revision: DSM-IV-TR. Arlington, VA: American Psychiatric Association: APA (2013): Diagnostic and Statistical Manual of Mental Disorders: Fifth Edition (DSM-5). Washington, D.C.: American Psychiatric Association), which will heretofore be called the PCL-IV and the PCL-5 (Blevins et al. (2015) J Trauma Stress. 28:489-498: Weathers et al. (1993) Trauma. Coping. and Adaptation. San Antonio, Texas: International Society for Traumatic Stress Studies, 9th Annual Meeting). […] A validated crosswalk (ICC=0.96) was used to convert all values to PCL-5 scoring (Moshier et al. (Under review): An empirical crosswalk for the PTSD Checklist: Translating DSM-IV to DSM-5). PTSD improvement cases were defined by a clinically meaningful improvement, which was a decrease of 15 points or more between assessment points (Lee et al. (2019) Reliable Change Index and Clinically Significant Margins for the CAPS-5 and PCL-5 among Veterans. Boston, MA: International Society for Traumatic Stress Studies, 35th Annual Meeting). […] Thus, the no PTSD improvement control group was defined as worsening of symptoms or reductions of up to 7 points on the PCL. Improvements between 8 and 14 points were of uncertain clinical significance and were therefore excluded.
Identification and Classification of New Medications. The predictors of interest were initiation of medications for any indication. Candidate agents included those that were started in the interval between PCL pairs and continued for at least a 28-day supply. When patients started multiple medications between a given PCL pair, they contributed information for each of the medications in the tree.

[1] = all patients in the overall sample
[2] = baseline PCL 38 or higher, PTSD diagnosis within 30 days, without any concurrent evidence-based treatment
[3] = baseline PCL score of 38 or higher and PTSD diagnosis within 30 days
[4] = case = improved by 15 or more points on PTSD Checklist, all patients in the overall sample
[5] = improvement in PTSD, all patients in the overall sample
[6] = overall sample without any concurrent evidence-based treatment

Row | Compound | EXP = Expected Cases [1] | EXP = Expected Cases [2] | O:E = Observed Cases over Expected Cases [2] | OBS = Observed Cases [2] | EXP = Expected Cases [3] | O:E = Observed Cases over Expected Cases [3] | OBS = Observed Cases [3] | OBS = Observed Cases [4] | O:E = Observed Cases over Expected Cases [5] | association with PTSD symptom improvement, in words (statistical alert at P<0.1) | EXP = Expected Cases [6] | O:E = Observed Cases over Expected Cases [6] | OBS = Observed Cases [6] | O:E = Observed Cases over Expected Cases (improvement in PTSD, all patients in the overall sample, listed as pibrentasvir)
1 | CN(C)CCCC1(c2ccc(F)cc2)OCc2cc(C#N)ccc21 (centres unmarked) [Citalopram] | 1508 | 632 | 1.25 | 785 | 1202 | 1.10 | 1315 | 1653 | 1.10 | similarly small associations | 814 | 1.28 | 1039 | –
2 | Nc1nc2ncc(CNc3ccc(C(=O)N[C@@H](CCC(=O)O)C(=O)O)cc3)nc2c(=O)[nH]1 [Folic Acid] | 445 | – | – | – | 391 | 1.20 | 469 | 567 | 1.27 | – | 134 | 1.38 | 185 | –
3 | CN1CCCC1c1cccnc1 (centres unmarked) [Nicotine] | 2109 | 522 | 1.17 | 610 | 1736 | – | 2007 | 2371 | 1.13 | – | – | – | – | –
4 | Cholecalciferol | 2470 | – | – | – | 2070 | 1.08 | 2238 | 2647 | 1.07 | – | – | – | – | –
5 | CC(C)OC(=O)[C@H](C)N[P@](=O)(OC[C@H]1O[C@@H](n2ccc(=O)[nH]c2=O)[C@](C)(F)[C@@H]1O)Oc1ccccc1 [sofosbuvir] | – | – | – | – | – | – | – | – | – | Neither sofosbuvir nor ledipasvir were associated with a significantly higher than expected improvement | – | – | – | –
6 | Cc1ncc(C[n+]2csc(CCO)c2C)c(N)n1 [Thiamine] | 351 | – | – | – | 304 | 1.24 | 377 | 444 | 1.27 | – | 106 | 1.38 | 146 | –
7 | CN1CCN2c3ncccc3Cc3ccccc3C2C1 (centres unmarked) [Mirtazapine] | – | – | – | – | – | – | – | – | – | – | 755 | 1.13 | 849 | –
8 | Fluoxetine | 1571 | – | – | – | – | – | – | 1716 | 1.09 | similarly small associations | – | – | – | –
9 | COc1ccc2[nH]cc(CCNC(C)=O)c2c1 [Melatonin] | 1161 | – | – | – | 1033 | 1.10 | 1131 | 1295 | 1.12 | – | – | – | – | –
10 | O=c1n(CCCN2CCN(c3cccc(Cl)c3)CC2)nc2ccccn12 [Trazodone] | 4061 | 893 | 1.12 | 992 | 3396 | 1.07 | 3610 | 4308 | 1.06 | similarly small associations | 1157 | 1.1 | 1272 | –
11 | COC(=O)N[C@H](C(=O)N1CC2(CC2)C[C@H]1c1nc(-c2ccc3c(c2)C(F)(F)c2cc(-c4ccc5nc([C@@H]6[C@H]7CC[C@H](C7)N6C(=O)[C@@H](NC(=O)OC)C(C)C)[nH]c5c4)ccc2-3)c[nH]1)C(C)C [ledipasvir] | – | – | – | – | – | – | – | – | – | Neither sofosbuvir nor ledipasvir were associated with a significantly higher than expected improvement | – | – | – | –
12 | CN(C)CCC[C@@]1(c2ccc(F)cc2)OCc2cc(C#N)ccc21 [Escitalopram] | – | – | – | – | – | – | – | – | – | – | 474 | – | 558 | –
13 | Sertraline | 4025 | – | – | – | 3434 | – | 3909 | 4659 | – | – | – | – | – | –
14 | CNCC[C@@H](Oc1ccccc1C)c1ccccc1 [Atomoxetine] | 74 | – | – | – | 65 | 1.41 | 92 | 104 | 1.40 | – | – | – | – | –
15 | Quetiapine | – | – | – | – | – | – | – | – | – | – | 371 | 1.24 | 460 | –
16 | COC(=O)N[C@H](C(=O)N1CCC[C@H]1c1nc2cc(F)c([C@H]3CC[C@H](c4cc5[nH]c([C@@H]6CCCN6C(=O)[C@@H](NC(=O)OC)[C@@H](C)OC)nc5cc4F)N3c3cc(F)c(N4CCC(c5ccc(F)cc5)CC4)c(F)c3)cc2[nH]1)[C@@H](C)OC [Pibrentasvir, pibrentasvir] | 16 | 4 | 3.52 | 14 | 14 | 2.21 | 30 | 33 | 2.09 | – | 5 | 3.09 | 14 | 2.09
